# In patent US11173178B2, “Liposomes for drug delivery and methods for preparation thereof” (priority 2008, dated 2021):
# Experiment: Stability of oxaliplatin in hydration solution (UV, absorbance at 254 nm)
# Format: physicochemical
# Method: Oxaliplatin was dissolved in a hydration solution containing 10% sucrose and 1 mM Calcium gluconate (10 mg/ml). Sucrose was added to obtain an osmolarity approximately corresponding to physiological salt concentration. Stability of oxaliplatin in the hydration solution was followed by UV measurement. Samples were taken continually during storage at room temperature. Sample concentration measured was 0.1 mg/ml oxaliplatin. In order to follow the oxaliplatin stability a scan was performed from 200-350 nm (FIG. 1) and the absorbance at 254 nm was compared during storage (FIG. 2). Major changes in absorbance at 254 nm are usually related to oxaliplatin decomposition, which can easily be observed by dissolving oxaliplatin in solutions containing hydroxide and/or chloride ions.
smiles,measurement,setting,value
"O=C1[O][Pt]2([NH][C@@H]3CCCC[C@H]3[NH]2)[O]C1=O [Oxaliplatin, oxaliplatin]",decomposition during storage (absorbance at 254 nm),"10% sucrose solution containing 1 mM calcium gluconate, room temperature, at least 35 days",practically no decomposition
same,absorbance at 254 nm with common buffer components,"phosphate, citrate, acetate, ethanolamine (data not shown)",decrease the absorbance at 254 nm
